Patent publication US12258336B2, “Preparation of seimicarbazide-sensitive amine oxidase inhibitor and use thereof” (SHANGHAI ENNOVABIO PHARMACEUTICALS CO., LTD., priority 2018, dated 2025)

Tests used:
Format in all cases: biochemical
Recombinant human MAO-B = target: T1, Recombinant human MAO-B (Homo sapiens, UniProt P27338); experiment: Inhibitory activity on MAO-B
T1 construct: purchased Sigma M7441
T1 sequence (P27338 1-520): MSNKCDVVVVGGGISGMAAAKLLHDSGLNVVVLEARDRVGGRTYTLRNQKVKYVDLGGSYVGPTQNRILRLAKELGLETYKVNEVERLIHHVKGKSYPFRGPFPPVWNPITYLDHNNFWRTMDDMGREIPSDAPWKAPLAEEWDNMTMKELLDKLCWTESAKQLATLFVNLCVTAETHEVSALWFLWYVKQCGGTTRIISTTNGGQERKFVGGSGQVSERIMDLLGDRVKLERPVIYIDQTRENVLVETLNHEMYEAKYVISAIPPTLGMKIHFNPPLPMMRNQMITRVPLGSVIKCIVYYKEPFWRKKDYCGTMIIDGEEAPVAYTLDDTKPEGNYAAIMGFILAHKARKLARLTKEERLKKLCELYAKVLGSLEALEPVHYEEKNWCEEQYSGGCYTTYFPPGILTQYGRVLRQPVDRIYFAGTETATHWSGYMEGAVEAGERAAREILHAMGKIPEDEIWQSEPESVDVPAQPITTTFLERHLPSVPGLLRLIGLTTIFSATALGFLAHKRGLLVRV
Description: (§1) Recombinant human MAO-A and MAO-B protein was purchased from Sigma (M7316, M7441). Other reagents are the same as Biological Test Example 1. The final concentration of test compound in 10 μL reaction system was 100 μM to 5 nM when MAO-A and MAO-B were detected. The final concentrations of MAO-A and MAO-B protein in 10 μL reaction system were 70 nM and 300 nM, respectively, while other reaction conditions were the same as those in Biological Test Example 1. Data analysis and IC50 calculation method were the same as those in Biological Test Example 1.

Recombinant human MAO-A = target: T2, Recombinant human MAO-A (Homo sapiens, UniProt P21397); experiment: Inhibitory activity on MAO-A
T2 construct: purchased Sigma M7316
T2 sequence (P21397 1-527): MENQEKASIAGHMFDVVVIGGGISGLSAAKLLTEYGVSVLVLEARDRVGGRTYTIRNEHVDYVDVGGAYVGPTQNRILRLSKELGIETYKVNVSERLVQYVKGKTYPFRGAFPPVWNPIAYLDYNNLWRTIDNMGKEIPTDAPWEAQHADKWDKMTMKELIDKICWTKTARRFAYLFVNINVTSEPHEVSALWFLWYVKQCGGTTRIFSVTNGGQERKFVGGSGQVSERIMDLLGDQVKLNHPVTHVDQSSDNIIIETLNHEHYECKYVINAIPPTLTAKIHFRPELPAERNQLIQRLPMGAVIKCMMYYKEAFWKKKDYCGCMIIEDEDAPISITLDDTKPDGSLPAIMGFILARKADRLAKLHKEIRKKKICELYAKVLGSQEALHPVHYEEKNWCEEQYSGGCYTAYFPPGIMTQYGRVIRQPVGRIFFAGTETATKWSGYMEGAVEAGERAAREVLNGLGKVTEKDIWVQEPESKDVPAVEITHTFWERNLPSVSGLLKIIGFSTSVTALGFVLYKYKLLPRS
Description: as §1

[1] = target: T3, Recombinant human AOC1/DAO protein (Homo sapiens, UniProt P19801); experiment: Inhibitory activity on AOC1 (Amplex UltraRed)
T3 construct: purchased R&D systems 8298-AO
T3 sequence (P19801 20-751): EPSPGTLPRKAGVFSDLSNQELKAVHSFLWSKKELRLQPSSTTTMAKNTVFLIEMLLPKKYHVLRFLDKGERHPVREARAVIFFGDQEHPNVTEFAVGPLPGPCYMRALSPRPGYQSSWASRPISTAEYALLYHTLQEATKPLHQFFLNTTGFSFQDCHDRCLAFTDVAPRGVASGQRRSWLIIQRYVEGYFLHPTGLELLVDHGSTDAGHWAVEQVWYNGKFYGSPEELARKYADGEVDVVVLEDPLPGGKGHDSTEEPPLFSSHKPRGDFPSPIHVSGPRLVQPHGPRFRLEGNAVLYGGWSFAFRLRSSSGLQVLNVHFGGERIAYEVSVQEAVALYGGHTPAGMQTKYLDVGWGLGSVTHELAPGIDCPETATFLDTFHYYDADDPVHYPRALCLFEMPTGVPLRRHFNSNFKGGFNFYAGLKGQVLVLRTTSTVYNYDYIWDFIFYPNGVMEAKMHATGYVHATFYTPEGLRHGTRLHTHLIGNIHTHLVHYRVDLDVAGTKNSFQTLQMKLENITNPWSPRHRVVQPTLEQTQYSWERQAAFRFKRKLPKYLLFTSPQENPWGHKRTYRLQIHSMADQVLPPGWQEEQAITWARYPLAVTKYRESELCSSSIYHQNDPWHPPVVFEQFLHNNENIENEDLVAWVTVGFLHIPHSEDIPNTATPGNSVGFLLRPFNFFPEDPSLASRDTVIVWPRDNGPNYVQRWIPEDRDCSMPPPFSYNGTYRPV
Description: Recombinant human AOC1/DAO protein was purchased from R&D systems (Cat: 8298-AO). Amplex UltraRed was purchased from Thermo scientific (Cat: A36006). HRP (Cat: P8250) and Putrescine (Cat: V900377) were purchased from Sigma. Enzyme reaction buffer (50 mM HEPES, 120 mM NaCl, 5 mM KCl, 2 mM CaCl2, 1.4 mM MgCl2, 0.001% Tween-20, pH7.4) was prepared. Test compound was dissolved in DMSO and diluted by 3-fold concentration in gradient. The final concentration of test compound in 10 μL reaction system was 100 μM to 5 nM when AOC1 was detected. The content of DMSO in detection reaction was 1%. After the solution of test compound in DMSO was diluted in the enzyme reaction buffer at a volume ratio of 1:25, 10 μL of mixture was added to each well of detection plate. 4× substrate mixture (containing 400 μM Putrescine, 4 U/mL HRP, 4 μM Amplex UltraRed) was prepared in the enzyme reaction buffer, 10 μL of which was added to each well. 20 μL of AOC1 protein diluted in enzyme reaction buffer was added to each well at final concentration 0.4 nM in 40 μL reaction system. Synergy Neo 2 was used to read the plate for detection. The instrument was set at 30° C., 530 nm excitation wavelength, 590 nm emission wavelength. Detection was conducted once every minute for 30 minutes continuously. The enzyme activity was calculated based on the increased signal of each well from the 10th minute to the 30th minute. The value was converted into inhibition rate by the following formula Inhibition rate=(Signalpositive−Signaltest)/(Signalpositive−Signalnegative)×100%
Signalpositive was positive control without test compound. Signalnegative was negative control without test compound and AOC1, and Signaltest was detection value of different compounds at each concentration. IC50 value was calculated by using 4 parameter curve fitting.

With CC1CN(c2ncc(OC/C(=C/F)CN)cn2)CC(C)N1C1COC1 (stereo not drawn) [Example 1, (E)-2-(((2-(3,5-dimethyl-4-(oxbutan-3-yl)piperazin-1-yl)pyrimidin-5-yl)oxo)methyl)-3-fluoroprop-2-en-1-amine] as the compound, how does the IC50 (Recombinant human MAO-B) read?
The IC50 was greater than 20 µM.

And the IC50 (Recombinant human MAO-A)?
The IC50 was greater than 100 µM.

And the IC50 [1]?
Its IC50 is greater than 10 µM.

For COC1CC2CC1CN2c1ncc(OC/C(=C/F)CN)cn1 (stereo not drawn) [Example 2], which IC50 (Recombinant human MAO-B) is on record?
The IC50 was greater than 20 µM.

And the IC50 (Recombinant human MAO-A)?
Its IC50 is 2 to 100 µM.

And the IC50 [1]?
Its IC50 is 0.1 to 10 µM.

NC/C(=C\F)COc1cnc(N2CCC3(CC2)COC3)nc1 [Example 3] was tested. Which IC50 (Recombinant human MAO-B) did it give?
Its IC50 is greater than 20 µM.

What about the IC50 (Recombinant human MAO-A) of the same compound?
The IC50 was 2 to 100 µM.

What about the IC50 [1] of the same compound?
The IC50 was 0.1 to 10 µM.

NC/C(=C\F)COc1cnc(N2CCN(C3COC3)CC2)nc1 [Example 4, (E)-3-fluoro-2-(((2-(4-(oxbutan-3-yl)piperazin-1-yl)pyrimidin-5-yl)oxo)methyl)prop-2-en-1-amine] was tested. Which IC50 (Recombinant human MAO-B) did it give?
Its IC50 is greater than 20 µM.

What about the IC50 (Recombinant human MAO-A) of the same compound?
Its IC50 is greater than 100 µM.

What about the IC50 [1] of the same compound?
Its IC50 is greater than 10 µM.

With CC1(C)CN(C2COC2)CCN1c1ncc(OC/C(=C/F)CN)cn1 [Example 5] as the compound, how does the IC50 (Recombinant human MAO-B) read?
The IC50 was greater than 20 µM.

And the IC50 (Recombinant human MAO-A)?
Its IC50 is greater than 100 µM.

And the IC50 [1]?
Its IC50 is greater than 10 µM.

How did the IC50 (Recombinant human MAO-B) turn out when NC/C(=C\F)COc1cnc(N2CC3CCC(C2)N3C2COC2)nc1 [Example 6] was run?
Its IC50 is greater than 20 µM.

And the IC50 (Recombinant human MAO-A)?
Its IC50 is greater than 100 µM.

And the IC50 [1]?
The IC50 was greater than 10 µM.

With N#Cc1cc(OC/C(=C/F)CN)cnc1N1CCN(C2COC2)CC1 [Example 7] as the compound, how does the IC50 (Recombinant human MAO-B) read?
The IC50 was 5 to 20 µM.

And the IC50 (Recombinant human MAO-A)?
Its IC50 is greater than 100 µM.

What about the IC50 [1] of the same compound?
Its IC50 is greater than 10 µM.

For NC/C(=C/F)COc1cnc(N2CCN(C3COC3)CC2)nc1 [Example 8], which IC50 (Recombinant human MAO-B) is on record?
The IC50 was 5 to 20 µM.

And the IC50 (Recombinant human MAO-A)?
The IC50 was 2 to 100 µM.

And the IC50 [1]?
The IC50 was greater than 10 µM.

How did the IC50 (Recombinant human MAO-B) turn out when NC/C(=C\F)COc1cnc(N2CCN(c3cnc(N4CCN(C5COC5)CC4)nc3)CC2)nc1 [Example 9] was run?
Its IC50 is greater than 20 µM.

What about the IC50 (Recombinant human MAO-A) of the same compound?
The IC50 was greater than 100 µM.

And the IC50 [1]?
The IC50 was 0.1 to 10 µM.

CC1(C)CN(c2ncc(OC/C(=C/F)CN)cn2)CCN1C1COC1 [Example 10] was tested. Which IC50 (Recombinant human MAO-B) did it give?
Its IC50 is greater than 20 µM.

And the IC50 (Recombinant human MAO-A)?
The IC50 was greater than 100 µM.

What about the IC50 [1] of the same compound?
Its IC50 is greater than 10 µM.

COC1CC2CCC(C1)N2c1ncc(OC/C(=C/F)CN)cn1 (stereo not drawn) [Example 12] was tested. Which IC50 (Recombinant human MAO-B) did it give?
Its IC50 is greater than 20 µM.

And the IC50 (Recombinant human MAO-A)?
The IC50 was 2 to 100 µM.

And the IC50 [1]?
The IC50 was greater than 10 µM.
